Results reported in patent US10457644B2, “Pyrazol compounds as EAAT3 inhibitors” (Hoffmann-La Roche Inc., priority 2016, dated 2019).

Assays:
[1] = biological target: T1, human EAAT3 (Homo sapiens, UniProt P43005); test: FLIPR Membrane Potential (FMP) assay; assay type: cell-based; details: HEK-293 cells stably expressing human EAAT3; L-glutamate as agonist at 80% of maximum response; antagonist applied 15 min before; Kb by Cheng-Prusoff from IC50
T1 construct: expressed in transfected cells
T1 sequence (P43005 1-524): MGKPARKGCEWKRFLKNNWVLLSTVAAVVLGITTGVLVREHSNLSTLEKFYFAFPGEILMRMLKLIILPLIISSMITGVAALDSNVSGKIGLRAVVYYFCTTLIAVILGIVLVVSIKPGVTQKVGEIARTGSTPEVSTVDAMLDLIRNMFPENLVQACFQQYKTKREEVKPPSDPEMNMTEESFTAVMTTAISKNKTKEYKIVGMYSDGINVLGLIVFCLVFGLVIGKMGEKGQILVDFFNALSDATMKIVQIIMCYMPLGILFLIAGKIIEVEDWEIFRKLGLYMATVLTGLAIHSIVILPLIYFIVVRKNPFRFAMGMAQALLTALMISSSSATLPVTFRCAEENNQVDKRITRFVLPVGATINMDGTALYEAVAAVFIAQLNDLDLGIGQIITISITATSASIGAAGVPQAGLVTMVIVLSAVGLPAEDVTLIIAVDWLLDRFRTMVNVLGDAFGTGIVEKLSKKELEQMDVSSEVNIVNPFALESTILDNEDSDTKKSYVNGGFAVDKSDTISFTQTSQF
Protocol: The FLIPR Membrane Potential (FMP) Assay
HEK-293 cells stably expressing human EAAT3 were seeded at 55 000 cells/well in growth medium (DMEM glutamate free (Invitrogen 11960-044), 1% Pen Strep (10 ml/l GIBCO BRL N^o 15140-023), 10% FCS non dialysed heat inactivated, 5 mg/l puromycin) in poly-D-lysine treated 96-well black microtiter plates with clear-bottom. After 24 h, the growth medium was removed and 100 μl/well of Krebs buffer (140 mM NaCl, 4.7 mM KCl, 2.5 mM CaCl2, 1.2 mM MgCl2, 11 mM HEPES, 10 mM D-glucose, pH=7.4) added. The cells were then loaded by adding 100 μl/well FMP assay dye (FLIPR Membrane Potential assay reagent, Molecular Devices). The 96-well plates were then incubated at 37° C. for 1 h. The depolarization of the cells will cause more dye to enter in the cells, where it will bind to intracellular proteins and lipids and cause an increase in the fluorescence signal. Antagonist potency at human EAAT3 was determined by using L-glutamate as agonist at a concentration which gives 80% of the maximum response. The antagonists were applied 15 min before the application of the agonist L-glutamate. The assays were performed at room temperature and measurements done by using a Fluorometric Imaging Plate Reader (FLIPR, Molecular Devices) and filter #2. Responses were measured as peak increase in fluorescence minus basal (i.e. fluorescence without addition of L-glutamate). Kb was determined using the Cheng-Prusoff equation Kb=IC50/[1+(A/EC50)], where IC50 is the concentration of the antagonist producing 50% inhibition, A is the concentration of the agonist against which the IC50 is being determined ([…]) and EC50 is the concentration of the agonist producing […].

| Kb [1] [nM] | melting point [°C] | SMILES |
| --- | --- | --- |
| 400 | 69 | CC(C)(C)NC(=O)c1cc(-c2ccc(C(F)(F)F)cc2)cc(-c2ccnn2CC2CC2)c1 [Example 44, N-tert-Butyl-3-[2-(cyclopropylmethyl)-pyrazol-3-yl]-5-[4-(trifluoromethyl)-phenyl]-benzamide] |
| 260 | 72 | CC(C)(C)NC(=O)c1cc(-c2ccc(Cl)cc2)cc(-c2ccnn2C2CC2)c1 [Example 45, N-tert-Butyl-3-(4-chlorophenyl)-5-(2-cyclopropyl-pyrazol-3-yl)-benzamide] |
| 280 | 188 | CC(C)(C)NC(=O)c1cc(-c2ccc(F)cc2)cc(-c2ccnn2CC2CC2)c1 [Example 46, N-tert-Butyl-3-[2-(cyclopropylmethyl)-pyrazol-3-yl]-5-(4-fluorophenyl)-benzamide] |
| 110 | 162 | CCn1nccc1-c1cc(C(=O)NC(C)(C)C)cc(-c2ccc(F)cc2)c1 [Example 47, N-tert-Butyl-3-(2-ethyl-pyrazol-3-yl)-5-(4-fluorophenyl)-benzamide] |
| 290 | 70 | CCn1nccc1-c1cc(C(=O)NC(C)(C)C)cc(-c2ccc(C(F)(F)F)cc2)c1 [Example 48, N-tert-Butyl-3-(2-ethyl-pyrazol-3-yl)-5-[4-(trifluoromethyl)-phenyl]-benzamide] |
